Target: T1, HTR1E (Homo sapiens, UniProt P28566)
T1 construct: purchased Promega (in-house HiBiT-GPCR construct library, NanoBRET)
Test: NanoBRET screen HiBiT-HTR1E in HEK293
Type: binding
Method: Each tracer candidate was screened across the entire library of HiBiT-GPCR constructs using NanoBRET as the detection modality. As depicted in Figure 4A, the specificity of interactions was evaluated through decrease in BRET due to competitive displacement of a bound tracer by excess parental compound. Each tracer was analyzed for binding to each HiBiT-GPCR fusion in the absence and in the presence of competing parental compound. Briefly, HEK293 cells were transfected with HiBiT-GPCR constructs diluted into promoterless DNA to reduce expression and maximize translocation to the cell surface. Each tracer candidate was then screened at concentrations of 1 μM and 0.1 μM across cells expressing these fusions. Cells were treated for 1.5 h with tracer either alone or in the presence of 20 μM competing parental compound (i.e., control). BRET was measured upon addition of purified LgBiT and subsequent complementation with HiBiT genetically fused to a GPCR. The specificity of interactions was assessed through a decrease in BRET signal due to competitive displacement of the bound tracer. To further gauge the robustness of these interactions, the fold response over the control (i.e., BRETtracer/BRETcontrol) was calculated. We chose a 1.5-fold response, which translates to ≥7-fold signal over noise as the minimal threshold required to score an interaction as positive. […]. Below we highlight the screening results obtained for our exemplary fluorescent tracers based on Clozapine, Amitriptyline and AZD1283.
HiBiT-GPCR DNA constructs were diluted in 10 mM Tris pH 8 to a final concentration of 0.01 μg/μL, arrayed in 96-well plates and stored at −20 °C. For transfection, HEK293 cells were suspended in Opti-MEM (without phenol red) supplemented with 2% fetal bovine serum (Seradigm) and 100 units/mL penicillin–streptomycin (Gibco) at a final concentration of 220,000 cells/mL and dispensed into white 96-well plates at 90 μL/well. Subsequent transfections and screens were carried using an Agilent Bravo Automated Liquid Handling Platform. First, the 96-well HiBiT DNA arrays were diluted 25-fold in Opti-MEM (without serum or phenol red) to a final concentration of 0.0004 μg/μL and 20 μL of the diluted DNAs were transferred into new 96-well plates. Next, promoterless carrier DNA (1 μg/μL) was diluted 25-fold (0.04 μg/μL) and then dispensed into the diluted arrays at 20 μL/well. Following brief mixing, Viafect transfection reagent (Promega) diluted 16-fold into Opti-MEM was dispensed into the plates at 40 μL/well. After mixing by pipetting, plates were incubated for 10 min on the pipetting station deck. The DNA-transfection reagent complexes were then added to plates containing cells. To facilitate the screen, 10 μL of DNA-transfection reagent complexes were added in duplicates to the top 4 and bottom 4 rows, resulting in two identical 48-well arrays per plate. Plates with transfected cells were incubated for 18–20 h at 37 °C/5% CO2. A screen of each tracer across the entire library using two different concentrations requires duplicate plates of transfected cells. Depending on the number of tracers being screened, transfections can be scaled up using the same ratios. The next day, for each tracer, four 20× screening solutions in tracer dilution buffer (Promega) were prepared: two duplicates at final concentration of 20 μM and two duplicates at a final concentration of 2 μM. A competing unmodified compound was added to one of each duplicate at a final concentration of 400 μM. The four resulting solutions were diluted 4-fold in Opti-MEM without serum or phenol red to generate 5× solutions (5 µM and 0.5 µM tracer +/− 100 μM competing compound). To screen the library, a BioTek MultiFlo FX liquid dispenser was used to dispense 22.5 µL of tracer solution to the top 4 rows and 22.5 µL tracer + competing compound solution to the 4 bottom rows. Plates were briefly mixed on an orbital shaker and incubated for 1.5 h at room temperature. […]

T1 sequence (P28566 whole entry): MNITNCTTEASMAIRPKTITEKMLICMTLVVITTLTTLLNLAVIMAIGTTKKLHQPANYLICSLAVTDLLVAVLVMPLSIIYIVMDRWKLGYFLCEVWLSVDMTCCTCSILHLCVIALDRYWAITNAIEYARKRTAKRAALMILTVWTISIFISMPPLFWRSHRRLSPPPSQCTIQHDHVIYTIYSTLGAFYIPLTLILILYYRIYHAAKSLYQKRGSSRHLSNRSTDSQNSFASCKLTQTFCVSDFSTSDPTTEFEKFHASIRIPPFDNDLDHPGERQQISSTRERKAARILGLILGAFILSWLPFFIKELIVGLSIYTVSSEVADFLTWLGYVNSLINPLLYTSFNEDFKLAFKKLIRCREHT

| SMILES | NanoBRET Fold Response (HTR1E, tracer 0.1μM) | NanoBRET Fold Response (HTR1E, tracer 1μM) | also measured |
| --- | --- | --- | --- |
| Cc1nc2n(c(=O)c1CCN1CCC(c3noc4cc(F)ccc34)CC1)CCCC2OC(=O)NCCOCCOCCOCCOCCNC(=O)CCc1ccc2n1[B-](F)(F)[N+]1=C(c3ccc[nH]3)C=CC1=C2 (stereo not shown) [Risperidone-2-NB590] | 0.96 | 1.07 |  |
| CCOC(=O)c1cc(C#N)c(N2CCC(C(=O)NS(=O)(=O)Cc3ccccc3/C=C/C(=O)NCCNC(=O)CCc3ccc4n3[B-](F)(F)[N+]3=C(c5ccc[nH]5)C=CC3=C4)CC2)nc1C [AZD1283-1-NB590] |  |  | NanoBRET Fold Response (HTR1E, 0.1μM): 0.94; NanoBRET Fold Response (HTR1E, 1μM): 0.96 |
| Cc1cc2c(s1)Nc1ccccc1N=C2N1CCN(CCCNC(=O)CCOCCOCCOCCOCCNC(=O)CCc2ccc3n2[B-](F)(F)[N+]2=C(c4ccc[nH]4)C=CC2=C3)CC1 [Olanzapine-a-2-NB590] | 0.99 | 1.09 |  |
| COc1ccccc1N1CCN(CCCCN2C(=O)c3ccc(CNC(=O)CCOCCNC(=O)c4ccc(CNC(=O)CCc5ccc6n5[B-](F)(F)[N+]5=C(c7ccc[nH]7)C=CC5=C6)cc4)cc3C2=O)CC1 [NAN-190-3-NB590] | 0.84 | 0.91 |  |
| CC(C)N(CC[C@H](c1ccccc1)c1cc(CCNC(=O)CCOCCOCCOCCOCCNC(=O)CCc2ccc3n2[B-](F)(F)[N+]2=C(c4ccc[nH]4)C=CC2=C3)ccc1O)C(C)C [Tolterodine-2-NB590] | 1.27 | 1.10 |  |
| CN(C)CCC=C1c2ccccc2CCc2ccc(C(=O)NCCNC(=O)CCOCCOCCOCCOCCNC(=O)CCc3ccc4n3[B-](F)(F)[N+]3=C(c5ccc[nH]5)C=CC3=C4)cc21 [Amitriptyline-b-2-NB590] |  |  | NanoBRET Fold Response (tracer at 0.1μM, listed as amitriptyline-b-2-NB590): 1.01; NanoBRET Fold Response (tracer at 1μM, listed as amitriptyline-b-2-NB590): 0.95 |
| O=C(CCOCCOCCOCCOCCNC(=O)CCc1ccc2n1[B-](F)(F)[N+]1=C(c3ccc[nH]3)C=CC1=C2)NCCCN1CCN(C2=Nc3ccccc3Oc3ccc(Cl)cc32)CC1 [Loxapine-a-2-NB590] | 1.01 | 0.96 |  |
| CN(C)CCC=C1c2ccccc2CCc2ccc(C(=O)NCCNC(=O)CCOCCOCCOCCOCCNC(=O)CCc3ccc4n3[B-](F)(F)[N+]3=C(c5ccc[nH]5)C=CC3=C4)cc21 [Amitriptyline-a-2-NB590] |  |  | NanoBRET Fold Response (tracer at 0.1μM): 1.04; NanoBRET Fold Response (tracer at 1μM): 1.00 |
| O=C(CCc1ccc2n1[B-](F)(F)[N+]1=C(c3ccc[nH]3)C=CC1=C2)NCCOCCOCCNC(=O)OCCOCCN1CCN(C2=Nc3ccccc3Sc3ccccc32)CC1 [Quetiapine-a-2-NB590] | 0.96 | 0.99 |  |
| COc1ccccc1N1CCN(CCCCN2C(=O)c3ccc(CNC(=O)CCOCCOCCOCCOCCNC(=O)CCc4ccc5n4[B-](F)(F)[N+]4=C(c6ccc[nH]6)C=CC4=C5)cc3C2=O)CC1 [NAN-190-2-NB590] | 0.97 |  |  |
| CN1CCN(C2=Nc3cc(Cl)ccc3N(CC(=O)NCCOCCOCCOCCOCCNC(=O)CCc3ccc4n3[B-](F)(F)[N+]3=C(c5ccc[nH]5)C=CC3=C4)c3ccccc32)CC1 [Clozapine-c-2-NB590] |  |  | NanoBRET Fold Response (HTR1E, 0.1μM tracer): 1.00; NanoBRET Fold Response (HTR1E, 1μM tracer): 0.91 |
| COc1ccc2[nH]c(-c3ccc(CNC(=O)CCOCCOCCOCCOCCNC(=O)CCc4ccc5n4[B-](F)(F)[N+]4=C(c6ccc[nH]6)C=CC4=C5)cc3)c(CCNC(C)=O)c2n1 [AzomelatoninICO9-2-NB590] |  |  | NanoBRET Fold Response (0.1μM tracer): 0.97; NanoBRET Fold Response (1μM tracer): 1.18 |
| O=C(CCOCCOCCOCCOCCNC(=O)CCc1ccc2n1[B-](F)(F)[N+]1=C(c3ccc[nH]3)C=CC1=C2)NCCCN1CCN(C2=Nc3cc(Cl)ccc3Nc3ccccc32)CC1 [Clozapine-a-2-NB590] |  |  | NanoBRET Fold Response (HTR1E, 0.1μM tracer): 1.01; NanoBRET Fold Response (HTR1E, 1μM tracer): 0.96 |
| CCCn1c(=O)c2[nH]c(-c3ccc(OCC(=O)NCCNC(=O)CCOCCNC(=O)c4ccc(CNC(=O)CCc5ccc6n5[B-](F)(F)[N+]5=C(c7ccc[nH]7)C=CC5=C6)cc4)cc3)nc2n(CCC)c1=O [XAC-3-NB590] | 1.08 | 0.78 |  |
| O=C(CCc1ccc2n1[B-](F)(F)[N+]1=C(c3ccc[nH]3)C=CC1=C2)NCc1ccc(C(=O)NCCOCCOCCNCC(O)COc2cccc3ccccc23)cc1 (stereo not shown) [Propranolol-3-NB590] |  |  | NanoBRET Fold Response (HTR1E, 0.1μM): 1.00; NanoBRET Fold Response (HTR1E, 1μM): 0.98 |
| O=C(CCc1ccc2n1[B-](F)(F)[N+]1=C(c3ccc[nH]3)C=CC1=C2)NCc1ccc(C(=O)NCCOCCC(=O)N[C@@H]2CC[C@@]3(O)[C@H]4Cc5ccc(O)c6c5[C@@]3(CCN4CC3CC3)[C@H]2O6)cc1 [Naltrexone-3-NB590] | 0.72 | 0.90 |  |
| CN(CCC=C1c2ccccc2CCc2ccccc21)C(=O)CCOCCOCCOCCOCCNC(=O)CCc1ccc2n1[B-](F)(F)[N+]1=C(c3ccc[nH]3)C=CC1=C2 [Amitriptyline-e-2-NB590] |  |  | NanoBRET Fold Response (tracer at 1μM): 0.96 |
| N#CN=C(NCCCOc1cccc(CN2CCCCC2)c1)NCCNC(=O)CCOCCOCCOCCOCCNC(=O)CCc1ccc2n1[B-](F)(F)[N+]1=C(c3ccc[nH]3)C=CC1=C2 [Aminopotentidine-2-NB590] | 0.93 | 1.06 |  |
| COc1ccc2c(n1)c(CCNC(C)=O)cn2CCNC(=O)CCc1ccc2n1[B-](F)(F)[N+]1=C(c3ccc[nH]3)C=CC1=C2 [Azamelatonin-1-NB590] |  |  | NanoBRET Fold Response (0.1μM tracer): 0.99; NanoBRET Fold Response (1μM tracer): 0.99 |
| CC(C)N(CC[C@H](c1ccccc1)c1cc(CCNC(=O)c2ccc(CNC(=O)CCc3ccc4n3[B-](F)(F)[N+]3=C(c5ccc[nH]5)C=CC3=C4)cc2)ccc1O)C(C)C [Tolterodine-BZ-NB590] | 1.13 | 1.13 |  |
| CN1CCN(C2=Nc3cc(Cl)ccc3Nc3ccc(CNC(=O)CCOCCOCCOCCOCCNC(=O)CCc4ccc5n4[B-](F)(F)[N+]4=C(c6ccc[nH]6)C=CC4=C5)cc32)CC1 [Clozapine-b-2-NB590] |  |  | NanoBRET Fold Response (HTR1E, 0.1μM tracer): 0.99; NanoBRET Fold Response (HTR1E, 1μM tracer): 0.97 |

From paper PMC8151276, “An Integrated Approach toward NanoBRET Tracers for Analysis of GPCR Ligand Engagement” (Molecules, 2021)
